pIC50: −log10 of the molar value. Where a name gives a salt, the structure may show the parent alone.
Tests used:
recombinant human MetAP2 = molecular target: T1, recombinant human MetAP2 (Homo sapiens, UniProt P50579); assay: Recombinant human MetAP2 enzyme inhibition assay (MAS peptide / amino acid oxidase / Amplex Ultrared readout); format: biochemical; conditions: Flag tagged human recombinant MetAP2, 25 minutes at 25° C.
T1 construct: Flag; made in house
Protocol: Compounds are tested for their capacity to inhibit recombinant human MetAP2 activity using the following assay.
Flag tagged Human recombinant MetAP2 expressed and isolated for use as the enzyme source. 10 mM stock solutions of compounds were prepared in 100% DMSO and further diluted in 100% DMSO required concentration to 1 mM stocks. The stock compound solutions and DMSO vehicle controls were diluted to target final compound concentrations using assay buffer to a final concentration of 50 mM HEPES containing 100 mM NaCl, pH adjusted to 7.5. The MAS peptide was formulated to a 7.5 mM stock in distilled water and prior to use further diluted 1:4. […] 40 μl of enzyme was mixed with 100 μl of MnCl2 then further diluted in assay buffer to a final concentration of 16 μg/ml. To test for compound effect on MetAP2 enzyme activity, 5 μl of test compound, 10 μl of MAS substrate/amino acid oxidase mixture, 10 μl of MetAP2 was added to test wells in a 384 well black plate with blank wells containing no enzyme, replaced with 10 μl of assay buffer. All compounds were tested in duplicate on two occasions on the same day.
The plate was sealed with a TopSeal A cover and mixed briefly on an orbital mixer at 900 rpm. The plate was incubated for a further 25 minutes at 25° C. A 5× stock of Amplex buffer was prepared (0.25 M sodium phosphate, pH 7.4) and stored at 4° C. […] Horse radish peroxidase was diluted in […] of Amplex buffer, 100 μl of this was combined with 50 μl of Amplex Ultrared in […] of 1× Amplex buffer to generate sufficient detection reagent for a 384 well plate. 25 μl detection reagent was added to each well of the test plate, which was re-sealed and mixed briefly on an orbital shaker. The plate was transferred to an Envision Multi-label reader and RFU measured corresponding to excitation 531 nm and emission 595 nm. At the end of the MetAP2 incubation 25 μl Amplex/HRP mixture per well was added and the plate read plate on a plate reader.

[1] = system: Diet Induced Obese (DIO) C57BL/6 mice; assay: 10 day DIO mouse model, weight loss vs. vehicle; format: in vivo; conditions: 240 h; for inhibition in vivo at 0.3 mg/kg: 0.3 mpk sc once a day for 10 days; for inhibition in vivo at 1 mg/kg: 1.0 mpk sc once a day for 10 days
Text: The objective of this study design was to investigate the efficacy of disclosed compounds in a 10 day DIO mouse model. Effects on body weight, food intake, hematology and blood chemistry were the primary readouts of this study design. Male, Diet Induced Obese (DIO) C57BL/6 mice, 19-21 weeks of age (13-15 weeks on high fat diet) were ordered from a certified vendor and upon receipt were housed on irradiated corncob bedding in micro-isolator cages on a 12-hour light-dark cycle (0700-1900) at 68-74° F. and 30-70% humidity. Mice were fed Research Diets D12492 (60% Kcal fat, 20% Kcal carbohydrate and 20% protein) and provided water ad libitum. DIO mice were received and housed in the facility for approximately two weeks prior to the start of test article administration. On Day −4 or −3, mice were randomized into study groups based on body weight and body weights were continued to be recorded daily for the duration of the study. Daily food intake was assessed starting on Study Day −2 by weighing of the food with hopper together to avoid loss of food in transfer.
Compounds were formulated into a 100% DMSO stock (at 9 mg/mL) prior to the start, and further diluted into the target working concentration using the vehicle of 10% DMSO in water. Prior to test article administration, starting on Day −3 a dosing acclimation occurred with all animals receiving a subcutaneous injection of vehicle (10% DMSO) only for 3 days. Starting on Day 1, test compounds or vehicle were administered based on individual body weight, subcutaneously, once a day for 10 days. All mice were sacrificed on Day 11, 24 hours following the final dosing on Day 10. After sacrifice, whole blood was collected and analyzed for hematology and blood chemistry parameters.
Compounds were tested for weight loss vs. vehicle at 0.3 and 1.0 mpk sc (mg per kg animal weight delivered subcutaneously), and the results are shown in Table 2 below.

T1 sequence (P50579 whole entry): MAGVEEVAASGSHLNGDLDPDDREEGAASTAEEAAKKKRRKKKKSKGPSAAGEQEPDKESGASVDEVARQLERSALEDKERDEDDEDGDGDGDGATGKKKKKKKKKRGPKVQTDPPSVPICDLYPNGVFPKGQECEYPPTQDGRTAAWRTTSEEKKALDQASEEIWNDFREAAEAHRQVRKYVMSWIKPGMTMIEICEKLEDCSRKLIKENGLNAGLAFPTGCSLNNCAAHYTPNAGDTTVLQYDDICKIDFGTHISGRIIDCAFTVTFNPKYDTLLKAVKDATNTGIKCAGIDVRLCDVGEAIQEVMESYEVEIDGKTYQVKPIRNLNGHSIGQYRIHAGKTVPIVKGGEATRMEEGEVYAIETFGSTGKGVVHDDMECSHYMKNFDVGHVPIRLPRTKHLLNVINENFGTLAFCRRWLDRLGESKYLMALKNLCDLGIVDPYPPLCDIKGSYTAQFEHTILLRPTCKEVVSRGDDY

Row | Compound | pIC50 (recombinant human MetAP2) | inhibition in vivo at 0.3 mg/kg [1] | inhibition in vivo at 1 mg/kg [1]
1 | CO[C@@H]1[C@H](OC(=O)N[C@H](c2cnn(C[C@@H]3CCN(C)C3)c2)C(C)C)CC[C@]2(CO2)[C@H]1[C@@]1(C)O[C@@H]1CC=C(C)C [Example 23, (3R,4S,5S,6R)-5-methoxy-4-((2R,3R)-2-methyl-3-(3-methylbut-2-enyl)oxiran-2-yl)-1-oxaspiro[2.5]octan-6-yl (S)-2-methyl-1-(1-(((R)-1-methylpyrrolidin-3-yl)methyl)-1H-pyrazol-4-yl)propylcarbamate] | 6.30 to 7.30 | 5.1% | 
2 | CO[C@@H]1[C@H](OC(=O)N[C@@H](Cc2nnc(N)s2)C(C)C)CC[C@]2(CO2)[C@H]1[C@@]1(C)O[C@@H]1CC=C(C)C [Example 37, (3R,4S,5S,6R)-5-methoxy-4-((2R,3R)-2-methyl-3-(3-methylbut-2-enyl)oxiran-2-yl)-1-oxaspiro[2.5]octan-6-yl (S)-1-(5-amino-1,3,4-thiadiazol-2-yl)-3-methylbutan-2-ylcarbamate] | 6.30 to 7.30 | 2.5% | 
3 | CO[C@@H]1[C@H](OC(=O)N[C@H](c2cnn(C[C@H]3CCN(C)C3)c2)C(C)C)CC[C@]2(CO2)[C@H]1[C@@]1(C)O[C@@H]1CC=C(C)C [Example 22, (3R,4S,5S,6R)-5-methoxy-4-((2R,3R)-2-methyl-3-(3-methylbut-2-enyl)oxiran-2-yl)-1-oxaspiro[2.5]octan-6-yl (S)-2-methyl-1-(1-(((S)-1-methylpyrrolidin-3-yl)methyl)-1H-pyrazol-4-yl)propylcarbamate formate] | 6.30 to 7.30 | 4.7% | 
4 | CO[C@@H]1[C@H](OC(=O)N(C)[C@H](c2cn(CC(C)C)cn2)C(C)C)CC[C@]2(CO2)[C@H]1[C@@]1(C)O[C@@H]1CC=C(C)C [Example 40, (3R,4S,5S,6R)-5-methoxy-4-((2R,3R)-2-methyl-3-(3-methylbut-2-enyl)oxiran-2-yl)-1-oxaspiro[2.5]octan-6-yl ((S)-1-(1-isobutyl-1H-imidazol-4-yl)-2-methylpropyl)(methyl)carbamate] | 6.30 to 7.30 | 2.3% | 
5 | CO[C@@H]1[C@H](OC(=O)NCC(C)(C)c2nnc[nH]2)CC[C@]2(CO2)[C@H]1[C@@]1(C)O[C@@H]1CC=C(C)C [Example 39, (3R,4S,5S,6R)-5-methoxy-4-((2R,3R)-2-methyl-3-(3-methylbut-2-enyl)oxiran-2-yl)-1-oxaspiro[2.5]octan-6-yl 2-methyl-2-(4H-1,2,4-triazol-3-yl)propylcarbamate] | 6.30 to 7.30 | 3.4% | 7.6%
6 | CO[C@@H]1[C@H](OC(=O)N[C@H](c2ccc(N3CC(F)(F)C3)nc2)C(C)C)CC[C@]2(CO2)[C@H]1[C@@]1(C)O[C@@H]1CC=C(C)C [Example 25, (3R,4S,5S,6R)-5-methoxy-4-((2R,3R)-2-methyl-3-(3-methylbut-2-enyl)oxiran-2-yl)-1-oxaspiro[2.5]octan-6-yl (S)-1-(6-(3,3-difluoroazetidin-1-yl)pyridin-3-yl)-2-methylpropylcarbamate] | 6.30 to 7.30 | 13% | 
7 | CC[C@@H](Cc1noc(=O)[nH]1)NC(=O)O[C@@H]1CC[C@]2(CO2)[C@@H]([C@@]2(C)O[C@@H]2CC=C(C)C)[C@@H]1OC [Example 29, (3R,4S,5S,6R)-5-methoxy-4-((2R,3R)-2-methyl-3-(3-methylbut-2-enyl)oxiran-2-yl)-1-oxaspiro[2.5]octan-6-yl (S)-1-(5-oxo-4,5-dihydro-1,2,4-oxadiazol-3-yl)butan-2-ylcarbamate] | > 7.30 |  | 3.6%
8 | CO[C@@H]1[C@H](OC(=O)N[C@H](c2cn(CCN3CCOCC3)cn2)C(C)C)CC[C@]2(CO2)[C@H]1[C@@]1(C)O[C@@H]1CC=C(C)C [Example 17, (3R,4S,5S,6R)-5-methoxy-4-((2R,3R)-2-methyl-3-(3-methylbut-2-enyl)oxiran-2-yl)-1-oxaspiro[2.5]octan-6-yl (S)-2-methyl-1-(1-(2-morpholinoethyl)-1H-imidazol-4-yl)propylcarbamate] | 6.30 to 7.30 | 3.2% | 

Continued, in another order:

Row | pIC50 (recombinant human MetAP2) | Compound | inhibition in vivo at 0.3 mg/kg [1] | inhibition in vivo at 1 mg/kg [1]
9 | 6.30 to 7.30 | CNc1nnc(C[C@@H](NC(=O)O[C@@H]2CC[C@]3(CO3)[C@@H]([C@@]3(C)O[C@@H]3CC=C(C)C)[C@@H]2OC)C(C)C)s1 [Example 35, (3R,4S,5S,6R)-5-methoxy-4-((2R,3R)-2-methyl-3-(3-methylbut-2-enyl)oxiran-2-yl)-1-oxaspiro[2.5]octan-6-yl (R)-3-methyl-1-(5-(methylamino)-1,3,4-thiadiazol-2-yl)butan-2-ylcarbamate] |  | 1%
10 | > 7.30 | CO[C@@H]1[C@H](OC(=O)N[C@H](c2ncc[nH]2)C(C)C)CC[C@]2(CO2)[C@H]1[C@@]1(C)O[C@@H]1CC=C(C)C [Example 4, (3R,4S,5S,6R)-5-methoxy-4-((2R,3R)-2-methyl-3-(3-methylbut-2-enyl)oxiran-2-yl)-1-oxaspiro[2.5]octan-6-yl (S)-1-(1H-imidazol-2-yl)-2-methylpropylcarbamate] | 3.9% | 0.7%
11 | > 7.30 | CO[C@@H]1[C@H](OC(=O)N[C@H](c2cc(=O)cc[nH]2)C(C)C)CC[C@]2(CO2)[C@H]1[C@@]1(C)O[C@@H]1CC=C(C)C [Example 20, (3R,4S,5S,6R)-5-methoxy-4-((2R,3R)-2-methyl-3-(3-methylbut-2-enyl)oxiran-2-yl)-1-oxaspiro[2.5]octan-6-yl (S)-2-methyl-1-(4-oxo-1,4-dihydropyridin-2-yl)propylcarbamate] | 3.4% | 3.3%
12 | > 7.30 | CO[C@@H]1[C@H](OC(=O)N[C@H](c2nnc[nH]2)C(C)C)CC[C@]2(CO2)[C@H]1[C@@]1(C)O[C@@H]1CC=C(C)C [Example 9, (3R,4S,5S,6R)-5-methoxy-4-((2R,3R)-2-methyl-3-(3-methylbut-2-enyl)oxiran-2-yl)-1-oxaspiro[2.5]octan-6-yl (S)-2-methyl-1-(4H-1,2,4-triazol-3-yl)propylcarbamate] | 2.1% | 
13 | 6.30 to 7.30 | CNc1nnc(C[C@@H](NC(=O)O[C@@H]2CC[C@]3(CO3)[C@@H]([C@@]3(C)O[C@@H]3CC=C(C)C)[C@@H]2OC)C(C)C)o1 [Example 33, (3R,4S,5S,6R)-5-methoxy-4-((2R,3R)-2-methyl-3-(3-methylbut-2-enyl)oxiran-2-yl)-1-oxaspiro[2.5]octan-6-yl (R)-3-methyl-1-(5-(methylamino)-1,3,4-oxadiazol-2-yl)butan-2-ylcarbamate] | 3.7% | 1%
14 | 6.30 to 7.30 | CNc1nnc([C@@H](NC(=O)O[C@@H]2CC[C@]3(CO3)[C@@H]([C@@]3(C)O[C@@H]3CC=C(C)C)[C@@H]2OC)C(C)C)s1 [Example 8, (3R,4S,5S,6R)-5-methoxy-4-((2R,3R)-2-methyl-3-(3-methylbut-2-enyl)oxiran-2-yl)-1-oxaspiro[2.5]octan-6-yl (S)-2-methyl-1-(5-(methylamino)-1,3,4-thiadiazol-2-yl)propylcarbamate] | 2% | 
15 | > 7.30 | CNc1nnc([C@H](NC(=O)O[C@@H]2CC[C@]3(CO3)[C@@H]([C@@]3(C)O[C@@H]3CC=C(C)C)[C@@H]2OC)C(C)C)s1 [Example 7, (3R,4S,5S,6R)-5-methoxy-4-((2R,3R)-2-methyl-3-(3-methylbut-2-enyl)oxiran-2-yl)-1-oxaspiro[2.5]octan-6-yl (R)-2-methyl-1-(5-(methylamino)-1,3,4-thiadiazol-2-yl)propylcarbamate] | 1.8% | 
